Laboratory results published in ChEMBL document CHEMBL1255189, “Structural basis for binding of cyclic 2-oxoglutarate analogues to factor-inhibiting hypoxia-inducible factor” (Bioorg Med Chem Lett, 2010).
Activity calls are given as the source filed them. No cut-off for these calls is given here.

How the values were obtained:
[1] = molecular target: Egl nine homolog 1 (Homo sapiens) (UniProt Q9GZT9); assay: Inhibition of PHD2 at 1 mM by HTRF assay
Prolyl hydroxylase EGLN2 = Prolyl hydroxylase EGLN2 (Homo sapiens, UniProt Q96KS0); assay: Inhibition of PHD1 by HTRF assay
[2] = Inhibition of FIH by HTRF assay

Egl nine homolog 1 (Homo sapiens), sequence (Q9GZT9 2-426 limits assumed): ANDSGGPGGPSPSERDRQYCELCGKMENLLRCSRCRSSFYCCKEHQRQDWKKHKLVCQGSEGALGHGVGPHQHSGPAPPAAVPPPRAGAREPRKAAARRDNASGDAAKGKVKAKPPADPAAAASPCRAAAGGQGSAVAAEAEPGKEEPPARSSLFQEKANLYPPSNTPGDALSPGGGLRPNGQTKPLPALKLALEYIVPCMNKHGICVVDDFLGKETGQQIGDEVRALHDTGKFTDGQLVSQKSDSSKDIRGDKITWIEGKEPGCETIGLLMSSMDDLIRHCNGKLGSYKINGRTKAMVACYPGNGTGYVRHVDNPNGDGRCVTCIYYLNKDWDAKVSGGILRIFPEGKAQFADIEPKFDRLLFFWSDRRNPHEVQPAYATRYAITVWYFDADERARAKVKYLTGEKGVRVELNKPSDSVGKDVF
Prolyl hydroxylase EGLN2, sequence (Q96KS0 whole entry): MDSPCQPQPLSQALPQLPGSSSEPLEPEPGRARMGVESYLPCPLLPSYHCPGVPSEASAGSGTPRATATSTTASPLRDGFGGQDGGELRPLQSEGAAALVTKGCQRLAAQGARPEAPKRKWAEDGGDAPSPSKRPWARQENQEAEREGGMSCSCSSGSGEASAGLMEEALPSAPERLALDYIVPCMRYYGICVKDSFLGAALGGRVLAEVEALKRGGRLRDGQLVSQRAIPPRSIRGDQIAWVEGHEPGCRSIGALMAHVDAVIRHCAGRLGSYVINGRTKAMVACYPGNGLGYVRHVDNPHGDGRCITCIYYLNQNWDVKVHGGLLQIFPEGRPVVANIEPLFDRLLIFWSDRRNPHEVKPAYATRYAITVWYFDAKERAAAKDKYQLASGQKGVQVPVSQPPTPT

Row | Compound | inhibition [1] | IC50 (Prolyl hydroxylase EGLN2) [µM] | inhibition [2]
1 | O=C(O)CNC(=O)c1ncccc1O | inactive | 91.1 | –
2 | O=C(NO)c1cccc(O)c1 | inactive | – | –
3 | O=C(O)CNC(=O)c1ccccc1O [SALICYLURIC ACID] | – | > 1000 | –
4 | O=C(O)C(=O)c1cccc(O)c1 | inactive | > 1000 | –
5 | O=C(O)C(S)c1cccc(O)c1 (stereo not drawn) | inactive | 500 | –
6 | O=C(O)CNC(=O)c1ccccn1 | inactive | > 1000 | –
7 | O=C(O)c1ccnc(C(=O)O)c1 | inactive | 625 | Active
